These results are taken from patent US20220340597A1, “HEXAHYDRO-1H-PYRAZINO[1,2-A]PYRAZINE COMPOUNDS FOR THE TREATMENT OF AUTOIMMUNE DISEASE” (Hoffmann-La Roche Inc., priority 2019, published 2022).

Data set [1] has as its system Balb/c 3T3 mouse fibroblasts. As to the kind of experiment: 3T3 in vitro phototoxicity assay (Neutral Red uptake). Format: cell-based. The conditions noted are these: for Phototoxicity factor: Factor=IC50(-UV)/IC50(+UV), cut-off >5; for IC50: Mus musculus, BALB/c3T3, light or radiation study, with approx. 5 J/cm2 UVA light, Neutral Red uptake. The source says: 3T3 In Vitro Phototoxicity Assay
Phototoxicity is defined as a toxic response that is elicited after the first exposure of the skin to certain chemicals and subsequent exposure to light, or that is induced similarly by skin irradiation after systemic administration of a chemical substance. The assay used in this study is designed to detect the phototoxic potential of a chemical by using a simple in vitro cytotoxicity assay with Balb/c 3T3 mouse fibroblasts. The principle of this test is a comparison of the cytotoxicity of a chemical when tested with and without exposure to a non-toxic dose of UVA-light. Cytotoxicity is expressed as a dose dependent reduction of the growth rate of cells as determined by uptake of the vital dye Neutral Red one day after treatment.
A small amount of substance was weighed and formulated freshly in DMSO just before the start of the exposure of the cells. This stock solution or appropriate dilutions with DMSO were added to the cell suspensions to obtain the required final concentrations. All solutions were generally prepared in Eppendorf caps and discarded after use.
Chlorpromazine (HCL) (Sigma, Batch/Lot No.: 120M1328V), test concentration: 300 μg/mL, Solvent: PBS/3% DMSO
For this study the Neutral Red uptake (NRU) assay of Borenfreund and Puemer (Borenfreund, E, Puemer J A. Toxicity determined in vitro by morphological alterations and Neutral Red absorption. Toxicology Lett. 1985; 24:119-124) modified according to INVITTOX protocol No 78 (ERGATT/FRAME data bank of in vitro techniques in toxicology. INVITTOX PROTOCOL No 78. 3T3 NRU Phototoxicity Assay. March 1994) has been adapted to examine a possible phototoxic potential of the test item. This assay is based on the active uptake of the Neutral Red dye into the lysosomes of cultured murine fibroblasts. Because lysosomal membranes are known to be a site of action of many phototoxic compounds, this assay can provide a measure of potential for phototoxic injury.
A murine fibroblasts clone A 31 (ATCC no. CCL 163—passage No. 108) were cultured in 175 cm^2 tissue culture grade flasks, containing sDMEM (Dulbecco's […] Essential Medium, supplemented with 10% fetal calf serum, 2 mM L-glutamine, 100 units/ml Penicillin and 100 μg/ml streptomycin) at 37° C. in a humidified atmosphere of 6% CO2. Before cells approach confluence they were removed from flasks by trypsinisation. Prior to use in an assay, the cells were transferred to 96-well microtiter plates at a concentration of 1×10^4 cells/well in 100 μl volumes of sDMEM and allowed to attach for 24 h.
For incubation with murine fibroblasts, the test item was diluted in PBS/3% DMSO (detailed concentrations see in results).
Culture medium (Dulbecco's Modified Eagle Medium (DMEM), GlutaMAX (Gibco Ref 21885-025), 10% Fetal Bovine Serum (FBS) (Gibco Ref 10270-106), 100 IU/ml Penicillin and 100 μg/ml Streptomycin (Gibco Ref 15140-122)) was removed from the wells and murine fibroblasts were washed with PBS. Afterwards 100 μL of PBS/3% DMSO containing the test item was added and target cells were incubated for 1 h at 37° C. with 6% CO2.
For each test item the microtiter plates were prepared according to Table 4. “UVA plates” were exposed to approx. 5 J/cm^2 UVA light, the “Dark plates” were kept in the dark and served as cytotoxicity control. Plates with chlorpromazine hydrochloride served as positive control. UV flux was measured with a UV-meter (Dr. Gröbel RM21).
Following UV irradiation, the test item was removed from the wells (one washing step with PBS) and replaced with sDMEM. Target cells were then incubated overnight at 37° C. in 6% CO2.
Each plate contained wells with cells and solvent but without test item which were either not incubated with Neutral Red solution (0% standard—S1) or were stained with Neutral Red (100% standard—S2) for calculation of the standard cell viability curve. Wells labeled with U01-U08 contained the different test item concentrations. […]

For data set [2], the system named is TLR7 agonist-induced lupus-like disease. As to the kind of experiment: R848 agonist induced mouse lupus nephritis disease model. Format: in vivo, BALB/c mice. As to conditions: 10 mg/kg orally once daily. The source says: Agonist Induced Mouse Lupus Nephritis Disease Model To assess compound efficacy in vivo against lupus nephritis, we utilized a murine model of TLR7 agonist-induced lupus-like disease, in which TLR7 activation leads to the development of systemic autoimmune symptoms with elevated levels of autoantibodies to double-stranded DNA (anti-dsDNA), inflammatory cytokines such as IP10, as well as multiple organs involvement especially in kidney and spleen. BALB/c mice were purchased from Vital River Laboratories Co., Ltd., Beijing, China. All mice were 7 to 8-week old female. To induce disease, animals were topically treated on the right ear with 100 μg of Resiquimod (R848) solved in 20 μL of acetone for three times per week. Compound or vehicle treatment was administrated orally once daily and 30 minutes prior to the epicutanenous R848 treatment if they were on the same day. Blood samples were collected once weekly to gauge the level of autoantibody against double stranded DNA and multiple cytokines in serum. The total anti-dsDNA Immunoglobulins in serum were measured according to the manufacturer's instruction with a commercially available ELISA assay (Cat #5110, Alpha Diagnostic Inti Inc.). Cytokine levels in serum were measured with a ProcartaPlex immunoassay Kit (Cat #[…], Thermo Fisher). Specifically, 10 μL of premixed magnetic capture beads were added to a DropArray DA-bead plate (Cat #969-CC-BD-05, Curiox). After washing, 10 μL of diluted sera (1:5) was incubated on the DA-bead plate overnight at 4° c. After washing for three times, 5 μL of premixed detection antibody was added to the plate with an incubation for 60 minutes at room temperature. After washing, 10 μL of Streptavidin-PE was added with an incubation for 30 minutes at room temperature. The beads were then re-suspended in 55 μL Reading Buffer. Samples were analyzed with a Luminex 200 (Millipore). Urine samples were collected once weekly with the animals housed in metabolic cages for 24 hours, and were subjected to the measurements of urinary albumin (UALB), urinary creatinine (UCR) and urinary total protein (UTP) with a Roche Cobas 6000 Chemistry Analyzer (Roche Diagnostics, Mannheim, Germany). Tubular protein scores of 0 to 3 were based on the percentage of tubules containing proteinaceous fluid. Grade 1: <25% of tubules affected; Grade 2: 25 to 50% of tubules affected; Grade 3: >50% of tubules affected. Spleens were harvested and weighed upon study termination to evaluate splenomegaly.

≈ marks a conversion by molar mass, not a printed value. Where only a bound is given, the exact number is not on record here.

For `CO[C@@H]1CN(c2ccc(CCN3CCN4[C@@H](C3)CN(c3ccc(C#N)c5ncccc35)C[C@H]4C)cn2)C[C@H]1N` [Example 12, 5-[(4R,9aS)-8-[2-[6-[(3R,4R)-3-amino-4-methoxy-pyrrolidin-1-yl]-3-pyridyl]ethyl]-4-methyl-3,4,6,7,9,9a-hexahydro-1H-pyrazino[1,2-a]pyrazin-2-yl]quinoline-8-carbonitrile], in data set [1], the Phototoxicity factor is above 2.53.

`C[C@@H]1CN(c2ccc(C#N)c3ncccc23)C[C@@H]2CN(Cc3ccc4c(c3)CNCC4)CCN21` [Example 5, 5-[(4R,9aS)-4-methyl-8-(1,2,3,4-tetrahydroisoquinolin-7-ylmethyl)-3,4,6,7,9,9a-hexahydro-1H-pyrazino[1,2-a]pyrazin-2-yl]quinoline-8-carbonitrile]: in data set [1], the Phototoxicity factor is above 1.39 and it took 23.3 µg/mL (≈ 51.5 µM) to reach half-maximal inhibition (IC50).

For the compound `C[C@@H]1CN(c2ccc(C#N)c3ncccc23)C[C@@H]2CN(c3cccc4c3CNC4)CCN21` [Example 9, 5-[(4R,9aS)-8-isoindolin-4-yl-4-methyl-3,4,6,7,9,9a-hexahydro-1H-pyrazino[1,2-a]pyrazin-2-yl]quinoline-8-carbonitrile], in data set [1], the Phototoxicity factor was above 3.9 and the concentration for half-maximal inhibition (IC50) (commonly the concentration needed to halve the response being measured) came to 26.3 µg/mL (≈ 61.9 µM).

In data set [1], `CO[C@@H]1CN(c2ccc(CCN3CCN4[C@@H](C3)CN(c3ccc(C#N)n5nccc35)C[C@H]4C)cc2)C[C@H]1N` [Example 68, 4-[(4R,9aS)-8-[2-[4-[(3R,4R)-3-amino-4-methoxy-pyrrolidin-1-yl]phenyl]ethyl]-4-methyl-3,4,6,7,9,9a-hexahydro-1H-pyrazino[1,2-a]pyrazin-2-yl]pyrazolo[1,5-a]pyridine-7-carbonitrile] had a Phototoxicity factor of 1.53 and an IC50 of 65.9 µg/mL (≈ 128 µM).

As for `[2H]c1ccc2c(N3C[C@@H]4CN(c5ccc([C@@H]6CNCCO6)cc5)CCN4[C@@H](C)C3)ccc(C#N)c2n1` [Example 106, 5-[(4S,9aS)-4-methyl-8-[4-[(2R)-morpholin-2-yl]phenyl]-3,4,6,7,9,9a-hexahydro-1H-pyrazino[1,2-a]pyrazin-2-yl]-2-deuterio-quinoline-8-carbonitrile], in data set [1], the Phototoxicity factor is on record as above 1.67 and the half-maximal inhibitory concentration (IC50) was determined as 60.2 µg/mL (≈ 128 µM). In data set [2] (after 1 week of treatment (FIG. 3A)), the “production of Interferon gamma-induced protein 10 (IP-10) in serum” value is given as “inhibited”. Besides, in data set [2] (after 2 weeks of treatment (FIG. 3B)), the “level of anti-dsDNA autoantibodies in serum” value is on record as “significantly reduces”. Also, the “kidney damage / R848-induced proteinuria (UACR)” value in data set [2] (after 5 weeks of treatment (FIG. 3C)) is given as “no R848-induced proteinuria increase”. Besides, in data set [2] (after 6 weeks of treatment (FIG. 3D)), the “splenomegaly / spleen weight” value is reported as “prevented splenomegaly”.

In data set [1], `[2H]c1ccc2c(N3C[C@@H]4CN(CCc5ccc(N6C[C@H]7NCCO[C@@H]7C6)nc5)CCN4[C@H](C)C3)ccc(C#N)c2n1` [Example 77, 5-[(4R,9aS)-8-[2-[6-[(4aR,7aR)-3,4,4a,5,7,7a-hexahydro-2H-pyrrolo[3,4-b][1,4]oxazin-6-yl]-3-pyridyl]ethyl]-4-methyl-3,4,6,7,9,9a-hexahydro-1H-pyrazino[1,2-a]pyrazin-2-yl]-2-deuterio-quinoline-8-carbonitrile] displayed a Phototoxicity factor above 1.9 and an IC50 of 52.5 µg/mL (≈ 97.3 µM).
